For assay [1], the target named is MAPK14 (human) (UniProt Q16539). As to the kind of experiment: Inhibition of MAPK14 Kinase Activity by PHAS-I Assay. Conditions: for inhibition: concentration not given here.
The target is the same in assay [2]. As to the kind of experiment: Inhibition of LPS Stimulated TNF Production by U937 Cells. Conditions: for inhibition: concentration not given here.

Chain of MAPK14 (human) (Q16539 whole entry, looked up): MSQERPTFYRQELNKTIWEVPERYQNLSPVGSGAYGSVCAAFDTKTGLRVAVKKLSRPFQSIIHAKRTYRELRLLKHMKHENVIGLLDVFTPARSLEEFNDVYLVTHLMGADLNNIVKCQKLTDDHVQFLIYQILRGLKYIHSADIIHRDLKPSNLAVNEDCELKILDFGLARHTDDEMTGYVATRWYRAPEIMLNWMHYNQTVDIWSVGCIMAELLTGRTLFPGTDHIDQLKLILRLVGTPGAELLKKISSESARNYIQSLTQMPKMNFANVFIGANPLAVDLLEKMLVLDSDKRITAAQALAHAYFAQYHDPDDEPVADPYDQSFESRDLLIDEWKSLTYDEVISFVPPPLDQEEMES

For `C=CCN(C(=O)Cn1nc(-c2ccc(F)cc2)c(-c2ccncc2)c1C)C1CCCCC1`, the inhibition against MAPK14 (human) [1] turned out to be 50%; against MAPK14 (human) [2] it was 6%.

For `O=C(NCc1[nH]nc(-c2ccc(F)cc2)c1-c1ccncc1)C(F)(F)C(F)(F)C(F)(F)F`, the inhibition on MAPK14 (human) [1] amounted to 96%; against MAPK14 (human) [2], 54%.

In the case of `CCOC(=O)C(C)NC(=O)NCCc1[nH]nc(-c2ccc(F)cc2)c1-c1ccncc1` (stereo not given), the inhibition turned out to be 63% at MAPK14 (human) [1] and 25% against MAPK14 (human) [2].

As for `O=S(=O)(NCCc1[nH]nc(-c2ccc(F)cc2)c1-c1ccncc1)c1ccc(F)cc1`, the values for the inhibition at MAPK14 (human) [1] and against MAPK14 (human) [2] were 85% and 7%, respectively.

Compound `CCN1CCC(N(CC)C(=O)Cn2nc(-c3ccc(F)cc3)c(-c3ccncc3)c2C)C1` (stereo not given) yielded an inhibition at MAPK14 (human) [1] of 32%. In addition, at MAPK14 (human) [2], the IC50 is more than 10 µM.

`Cc1c(-c2ccncc2)c(-c2ccc(F)cc2)nn1CC(=O)Nc1ccccc1OC(F)(F)F`: the inhibition at MAPK14 (human) [1] amounted to 91%. The IC50 at MAPK14 (human) [2] was more than 10 µM.

Consider `O=C(NCCc1[nH]nc(-c2ccc(F)cc2)c1-c1ccncc1)Nc1ccc(OC(F)(F)F)cc1`, for which the results for the inhibition on MAPK14 (human) [1] and on MAPK14 (human) [2] were 48% and 4%, respectively.

For `Cc1[nH]nc(-c2ccc3c(c2)CCCO3)c1-c1ccncc1`, the IC50 on MAPK14 (human) [1] amounted to 0.8 µM; against MAPK14 (human) [2], 0.208 µM.

With `COc1ccc(C2OCCN2C(=O)Cn2nc(-c3ccc(F)cc3)c(-c3ccncc3)c2C)cc1OC` (stereo not given), the inhibition is 69% on MAPK14 (human) [1] and 18% at MAPK14 (human) [2].

Regarding `CCCCCSc1cccc(NC(=O)Cn2nc(-c3ccc(F)cc3)c(-c3ccncc3)c2C)c1`, the inhibition against MAPK14 (human) [1] amounted to 94%. This compound had an IC50 at MAPK14 (human) [2] of more than 10 µM.

Turning to `CCCNC(=O)NCCc1[nH]nc(-c2ccc(F)cc2)c1-c1ccncc1`, the inhibition against MAPK14 (human) [1] amounted to 70%; against MAPK14 (human) [2], 73%.

Turning to `COC(=O)c1ccccc1NC(=O)NCCc1[nH]nc(-c2ccc(F)cc2)c1-c1ccncc1`, the inhibition against MAPK14 (human) [1] was 76%; against MAPK14 (human) [2] it was 31%.

In turn, `C[C@H](NC(=O)Nc1ccccc1F)c1[nH]nc(-c2ccc(F)cc2)c1-c1ccncc1` had an IC50 against MAPK14 (human) [1] of 6.84 µM. Further, the inhibition on MAPK14 (human) [2] was 38%.

Take `COc1cccc(C(=O)NCCc2[nH]nc(-c3ccc(F)cc3)c2-c2ccncc2)c1`: the inhibition is 54% against MAPK14 (human) [1] and 23% against MAPK14 (human) [2].

Consider `O=C(Cc1cccs1)NCCc1[nH]nc(-c2ccc(F)cc2)c1-c1ccncc1`, for which the figures for the inhibition at MAPK14 (human) [1] and on MAPK14 (human) [2] were 68% and 41%, respectively.

As to `O=C(NCCc1[nH]nc(-c2ccc(F)cc2)c1-c1ccncc1)Nc1ccc(C(F)(F)F)cc1`, the figures for the inhibition at MAPK14 (human) [1] and against MAPK14 (human) [2] were 82% and 20%, respectively.

`CCC(=O)C(=O)CNC(=O)NCc1[nH]nc(-c2ccc(F)cc2)c1-c1ccncc1`: the inhibition against MAPK14 (human) [1] amounted to 51%. Further, at MAPK14 (human) [2], the IC50 was more than 1 µM.

For `CCOC(=O)CC[C@H](NC(=O)Cn1nc(-c2ccc(F)cc2)c(-c2ccncc2)c1C)C(=O)OCC`, at MAPK14 (human) [1], the inhibition worked out at 45%. For the same compound, the IC50 on MAPK14 (human) [2] is more than 10 µM.

Consider `CC(Oc1ccccc1)C(=O)NCCCc1[nH]nc(-c2ccc(F)cc2)c1-c1ccncc1` (stereo not given), for which the inhibition against MAPK14 (human) [1] is 83%; at MAPK14 (human) [2] it was 60%.

As for `CCOC(=O)c1ccc(NC(=O)NCCc2[nH]nc(-c3ccc(F)cc3)c2-c2ccncc2)cc1`, the results for the inhibition against MAPK14 (human) [1] and against MAPK14 (human) [2] were 90% and 17%, respectively.

`COc1ccc(CN(CCc2ccccc2)C(=O)Cn2nc(-c3ccc(F)cc3)c(-c3ccncc3)c2C)cc1` returned an inhibition against MAPK14 (human) [1] of 75%. Also, the IC50 on MAPK14 (human) [2] was more than 10 µM.

Compound `O=C(NCCCc1[nH]nc(-c2ccc(F)cc2)c1-c1ccncc1)NCCN1CCOCC1` gave an IC50 on MAPK14 (human) [1] of 0.055 µM. The compound also showed an inhibition on MAPK14 (human) [2] of 20%.

The compound `COc1ccc(CC(=O)NCCCc2[nH]nc(-c3ccc(F)cc3)c2-c2ccncc2)cc1` yielded an inhibition against MAPK14 (human) [1] of 70%. In addition, on MAPK14 (human) [2], the IC50 worked out at 1.16 µM.

The compound `O=C(NCCCc1[nH]nc(-c2ccc(F)cc2)c1-c1ccncc1)[C@@H]1CCCN1` gave an inhibition on MAPK14 (human) [1] of 85%. Also, the IC100 against MAPK14 (human) [2] stood at 0.36 µM.

As for `COC(=O)C(=O)NCc1[nH]nc(-c2ccc(F)cc2)c1-c1ccncc1`, the results for the inhibition on MAPK14 (human) [1] and against MAPK14 (human) [2] were 89% and 79%, respectively.

What is called inhibition is the drop in the measured response relative to a control, in per cent. Low readings indicate little suppression, high ones strong suppression. By IC50 is commonly meant the midpoint of a concentration-inhibition curve.

(Values after the Kinase Knowledgebase extract (Sharma et al. 2016).)
